Data taken from patent US11053204B2, “Pyrimidinyloxy benzene derivatives as herbicides” (FMC Corporation, priority 2015, dated 2021).

Assays:
Assay type in all cases: in vivo
[1] = tested on: barnyardgrass (Echinochloa crus-galli); assay: Test A preemergence, visual injury rating
How it was run: (§1)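 Visual injury scored 0–100 (100 = complete control) against untreated controls about 10 days after treatment in a greenhouse. Test chemicals, formulated with surfactant in non-phytotoxic solvent, were sprayed on soil preemergence or on 2-10 cm, one- to two-leaf plants postemergence.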

[2] = tested on: Italian ryegrass (Lolium multiflorum); assay: Test A preemergence, visual injury rating
How it was run: as §1

[3] = tested on: giant foxtail (Setaria faberii); assay: Test A preemergence, visual injury rating
How it was run: as §1

[4] = tested on: ragweed (common ragweed, Ambrosia elatior); assay: Test A preemergence, visual injury rating
How it was run: as §1

[5] = tested on: kochia (Kochia scoparia); assay: Test A preemergence, visual injury rating
How it was run: as §1

[6] = tested on: pigweed (Amaranthus retroflexus); assay: Test A preemergence, visual injury rating
How it was run: as §1

[7] = tested on: barnyardgrass (Echinochloa crus-galli); assay: Test B flooded paddy test, plant response rating; conditions: 250 g ai/ha; Flood; scale of 0 to 100 where 0 is no effect and 100 is complete control; 13 to 15 days
How it was run: (§2)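 Pots were flooded to 3 cm above the soil surface at treatment, compound applied directly to the paddy water, and that depth held throughout. Plants were kept in a greenhouse for 13 to 15 days, then visually rated against untreated controls.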

[8] = tested on: rice (Oryza sativa); assay: Test B flooded paddy test, plant response rating; conditions: 250 g ai/ha; Flood; scale of 0 to 100 where 0 is no effect and 100 is complete control; 13 to 15 days
How it was run: as §2

[9] = tested on: ducksalad (Heteranthera limosa); assay: Test B flooded paddy test, plant response rating; conditions: 250 g ai/ha; Flood; scale of 0 to 100 where 0 is no effect and 100 is complete control; 13 to 15 days
How it was run: as §2

[10] = tested on: sedge, umbrella (small-flower umbrella sedge, Cyperus difformis); assay: Test B flooded paddy test, plant response rating; conditions: 250 g ai/ha; Flood; scale of 0 to 100 where 0 is no effect and 100 is complete control; 13 to 15 days
How it was run: as §2

[11] = tested on: barnyardgrass (Echinochloa crus-galli); assay: Test A postemergence, visual injury rating; conditions: 0 is no effect, 100 is complete control; for Barnyardgrass plant response rating: 0 to 100 scale, approximately 10 days
How it was run: as §1

[12] = tested on: Italian ryegrass (Lolium multiflorum); assay: Test A postemergence, visual injury rating; conditions: 0 is no effect, 100 is complete control; for Ryegrass, Italian plant response rating: 0 to 100 scale, approximately 10 days
How it was run: as §1

[13] = tested on: giant foxtail (Setaria faberii); assay: Test A postemergence, visual injury rating; conditions: 0 is no effect, 100 is complete control; for Foxtail, Giant plant response rating: 0 to 100 scale, approximately 10 days
How it was run: as §1

[14] = tested on: ragweed (common ragweed, Ambrosia elatior); assay: Test A postemergence, visual injury rating; conditions: 0 is no effect, 100 is complete control; for Ragweed plant response rating: 0 to 100 scale, approximately 10 days
How it was run: as §1

[15] = tested on: galium (catchweed bedstraw, Galium aparine); assay: Test A postemergence, visual injury rating; conditions: 0 is no effect, 100 is complete control; for Galium plant response rating: 0 to 100 scale, approximately 10 days
How it was run: as §1

[16] = tested on: corn (Zea mays); assay: Test A postemergence, visual injury rating; conditions: 0 is no effect, 100 is complete control; for Corn plant response rating: 0 to 100 scale, approximately 10 days
How it was run: as §1

[17] = tested on: kochia (Kochia scoparia); assay: Test A postemergence, visual injury rating; conditions: 0 is no effect, 100 is complete control; for Kochia plant response rating: 0 to 100 scale, approximately 10 days
How it was run: as §1

[18] = tested on: pigweed (Amaranthus retroflexus); assay: Test A postemergence, visual injury rating; conditions: 0 is no effect, 100 is complete control; for Pigweed plant response rating: 0 to 100 scale, approximately 10 days
How it was run: as §1

[19] = tested on: blackgrass (Alopecurus myosuroides); assay: Test A postemergence, visual injury rating; conditions: 0 is no effect, 100 is complete control; for Blackgrass plant response rating: 0 to 100 scale, approximately 10 days
How it was run: as §1

[20] = tested on: wheat (Triticum aestivum); assay: Test A postemergence, visual injury rating; conditions: 0 is no effect, 100 is complete control; for Wheat plant response rating: 0 to 100 scale, approximately 10 days
How it was run: as §1

[21] = 125 g ai/ha, 0 to 100 scale (0 no effect, 100 complete control)
[22] = 500 g ai/ha, 0 to 100 scale (0 no effect, 100 complete control)
[23] = 31 g ai/ha, 0 to 100 scale, 0 no effect, 100 complete control

**Q.** `CCC(C)OC(=O)c1c(Br)cccc1Oc1ncc(Cl)cn1` (stereo not drawn) [Compound 84] was tested. Which “Barnyardgrass plant response rating” value [1, 21] did it give?
**A.** Its value is 0.

**Q.** And the “Barnyardgrass plant response rating” value [1, 22]?
**A.** The value was 90.

**Q.** What about the “Ryegrass, Italian plant response rating” value [2, 21] of the same compound?
**A.** The value was 0.

**Q.** What about the “Ryegrass, Italian plant response rating” value [2, 22] of the same compound?
**A.** The value was 0.

**Q.** What about the “Foxtail, Giant plant response rating” value [3, 21] of the same compound?
**A.** The value was 0.

**Q.** And the “Foxtail, Giant plant response rating” value [3, 22]?
**A.** Its value is 100.

**Q.** What about the “Ragweed plant response rating” value [4, 21] of the same compound?
**A.** The value was 0.

**Q.** What about the “Ragweed plant response rating” value [4, 22] of the same compound?
**A.** The value was 0.

**Q.** What about the “Kochia plant response rating” value [5, 21] of the same compound?
**A.** Its value is 0.

**Q.** And the “Kochia plant response rating” value [5, 22]?
**A.** The value was 0.

**Q.** And the “Pigweed plant response rating” value [6, 21]?
**A.** Its value is 0.

**Q.** And the “Pigweed plant response rating” value [6, 22]?
**A.** Its value is 100.

**Q.** What about the “Plant response rating, Barnyardgrass” value [7] of the same compound?
**A.** The value was 0.

**Q.** What about the “Plant response rating, Rice” value [8] of the same compound?
**A.** Its value is 0.

**Q.** And the “Plant response rating, Ducksalad” value [9]?
**A.** The value was 0.

**Q.** And the “Plant response rating, Sedge, Umbrella” value [10]?
**A.** Its value is 0.

**Q.** And the “Barnyardgrass plant response rating” value ([11]; 125 g ai/ha)?
**A.** Its value is 0.

**Q.** What about the “Barnyardgrass plant response rating (0 to 100 scale)” value ([11]; 500 g ai/ha) of the same compound?
**A.** The value was 40.

**Q.** What about the “Ryegrass, Italian plant response rating” value ([12]; 125 g ai/ha) of the same compound?
**A.** The value was 0.

**Q.** And the “Ryegrass, Italian plant response rating (0 to 100 scale)” value ([12]; 500 g ai/ha)?
**A.** The value was 0.

**Q.** And the “Foxtail, Giant plant response rating” value ([13]; 125 g ai/ha)?
**A.** The value was 0.

**Q.** And the “Foxtail, Giant plant response rating (0 to 100 scale)” value ([13]; 500 g ai/ha)?
**A.** Its value is 60.

**Q.** And the “Ragweed plant response rating” value ([14]; 125 g ai/ha)?
**A.** The value was 0.

**Q.** And the “Ragweed plant response rating (0 to 100 scale)” value ([14]; 500 g ai/ha)?
**A.** Its value is 0.

**Q.** And the “Galium plant response rating” value ([15]; 125 g ai/ha)?
**A.** The value was 30.

**Q.** And the “Galium plant response rating (0 to 100 scale)” value ([15]; 500 g ai/ha)?
**A.** Its value is 40.

**Q.** And the “Corn plant response rating” value ([16]; 125 g ai/ha)?
**A.** The value was 10.

**Q.** What about the “Corn plant response rating (0 to 100 scale)” value ([16]; 500 g ai/ha) of the same compound?
**A.** The value was 40.

**Q.** What about the “Kochia plant response rating” value ([17]; 125 g ai/ha) of the same compound?
**A.** The value was 30.

**Q.** And the “Kochia plant response rating (0 to 100 scale)” value ([17]; 500 g ai/ha)?
**A.** The value was 70.

**Q.** What about the “Pigweed plant response rating” value ([18]; 125 g ai/ha) of the same compound?
**A.** The value was 30.

**Q.** What about the “Pigweed plant response rating (0 to 100 scale)” value ([18]; 500 g ai/ha) of the same compound?
**A.** The value was 70.

**Q.** What about the “Blackgrass plant response rating” value ([19]; 125 g ai/ha) of the same compound?
**A.** Its value is 0.

**Q.** And the “Blackgrass plant response rating (0 to 100 scale)” value ([19]; 500 g ai/ha)?
**A.** Its value is 0.

**Q.** And the “Wheat plant response rating” value ([20]; 125 g ai/ha)?
**A.** Its value is 0.

**Q.** And the “Wheat plant response rating (0 to 100 scale)” value ([20]; 500 g ai/ha)?
**A.** Its value is 20.

**Q.** How did the “Plant response rating, Barnyardgrass” value [1, 23] turn out when `CC(C)Oc1cccc(Oc2ncc(Cl)cn2)c1C(=O)OCCC(F)(F)F` [Compound 115] was run?
**A.** The value was 0.

**Q.** What about the “Plant response rating, Barnyardgrass” value [1, 21] of the same compound?
**A.** The value was 0.

**Q.** And the “Plant response rating, Ryegrass, Italian” value [2, 23]?
**A.** Its value is 0.

**Q.** And the “Plant response rating, Ryegrass, Italian” value [2, 21]?
**A.** Its value is 0.

**Q.** And the “Plant response rating, Foxtail, Giant” value [3, 23]?
**A.** Its value is 0.

**Q.** And the “Plant response rating, Foxtail, Giant” value [3, 21]?
**A.** The value was 0.

**Q.** And the “Plant response rating, Ragweed” value [4, 23]?
**A.** Its value is 20.

**Q.** What about the “Plant response rating, Ragweed” value [4, 21] of the same compound?
**A.** Its value is 0.

**Q.** And the “Plant response rating, Kochia” value [5, 23]?
**A.** The value was 70.

**Q.** And the “Plant response rating, Kochia” value [5, 21]?
**A.** The value was 0.

**Q.** What about the “Plant response rating, Pigweed” value [6, 23] of the same compound?
**A.** Its value is 0.

**Q.** And the “Plant response rating, Pigweed” value [6, 21]?
**A.** Its value is 0.

**Q.** What about the “Plant response rating, Barnyardgrass” value [7] of the same compound?
**A.** The value was 0.

**Q.** And the “Plant response rating, Rice” value [8]?
**A.** The value was 0.

**Q.** And the “Plant response rating, Ducksalad” value [9]?
**A.** The value was 0.

**Q.** And the “Plant response rating, Sedge, Umbrella” value [10]?
**A.** Its value is 0.

**Q.** What about the “Barnyardgrass plant response rating” value ([11]; 31 g ai/ha) of the same compound?
**A.** The value was 0.

**Q.** What about the “Barnyardgrass plant response rating” value ([11]; 125 g ai/ha) of the same compound?
**A.** The value was 0.

**Q.** What about the “Ryegrass, Italian plant response rating” value ([12]; 31 g ai/ha) of the same compound?
**A.** The value was 0.

**Q.** And the “Ryegrass, Italian plant response rating” value ([12]; 125 g ai/ha)?
**A.** Its value is 0.

**Q.** What about the “Foxtail, Giant plant response rating” value ([13]; 31 g ai/ha) of the same compound?
**A.** The value was 0.

**Q.** What about the “Foxtail, Giant plant response rating” value ([13]; 125 g ai/ha) of the same compound?
**A.** The value was 0.

**Q.** And the “Ragweed plant response rating” value ([14]; 31 g ai/ha)?
**A.** The value was 0.

**Q.** And the “Ragweed plant response rating” value ([14]; 125 g ai/ha)?
**A.** The value was 0.

**Q.** What about the “Galium plant response rating” value ([15]; 31 g ai/ha) of the same compound?
**A.** Its value is 20.

**Q.** What about the “Galium plant response rating” value ([15]; 125 g ai/ha) of the same compound?
**A.** The value was 20.

**Q.** What about the “Corn plant response rating” value ([16]; 31 g ai/ha) of the same compound?
**A.** Its value is 0.

**Q.** And the “Corn plant response rating” value ([16]; 125 g ai/ha)?
**A.** Its value is 10.

**Q.** And the “Kochia plant response rating” value ([17]; 31 g ai/ha)?
**A.** The value was 0.

**Q.** And the “Kochia plant response rating” value ([17]; 125 g ai/ha)?
**A.** The value was 0.

**Q.** And the “Pigweed plant response rating” value ([18]; 31 g ai/ha)?
**A.** The value was 10.

**Q.** And the “Pigweed plant response rating” value ([18]; 125 g ai/ha)?
**A.** The value was 40.

**Q.** And the “Blackgrass plant response rating” value ([19]; 31 g ai/ha)?
**A.** The value was 0.

**Q.** And the “Blackgrass plant response rating” value ([19]; 125 g ai/ha)?
**A.** Its value is 20.

**Q.** What about the “Wheat plant response rating” value ([20]; 31 g ai/ha) of the same compound?
**A.** Its value is 0.

**Q.** What about the “Wheat plant response rating” value ([20]; 125 g ai/ha) of the same compound?
**A.** The value was 0.
